Source: patent US20240197712A1, “TGF-BETA INHIBITION FOR IMMUNODEFICIENCY VIRUS REACTIVATION FROM LATENCY, ENHANCEMENT OF IMMUNODEFICIENCY VIRUS-SPECIFIC RESPONSES AND IMMUNODEFICIENCY VIRUS CURE” (Northwestern University, priority 2022, published 2024)

How the values were obtained:
[1] = Clinical pathology (chemistry, hematology) and adverse events; format: in vivo, rhesus macaques
Experimental: 1 mL of blood was collected in EDTA tubes and tested for a standard hematology panel (complete blood count—CBC) using a BECKMAN COULTER DxH600 hematology analyzer. An additional 1 mL of blood was collected into a SST tube, centrifuged to isolate serum, and analyzed for a comprehensive serum chemistry panel using a Siemens's Dimension Clinical Chemistry Analyzer.

[2] = Galunisertib plasma pharmacokinetics by LCMS; format: in vivo, rhesus macaques
Experimental: Eight naïve macaques (FIG. 9) were used to collect plasma and PBMC for PK/PD studies. 4 macaques received galunisertib (2.5 mg/kg, n=2 or 5 mg/kg, n=2) once and blood was collected at 1 hr, 3 hr and 6 hrs, 24 hrs and 48 hrs. 4 macaques received galunisertib (2.5 mg/kg, n=2 or 5 mg/kg, n=2) twice daily for 9 days and samples were collected 1 hr, 3 hr and 8 hrs after administration on day 1 and on day 9 right before and 1 hr and 3 and 6 hrs after the last administration. Plasma concentrations of galunisertib were measured by IMSERC (Integrated Molecular Structure Education and Research Center) utilizing liquid chromatography mass spectrometry (Shimadzu Kyoto, Japan ultra-high performance liquid chromatography—UHPLC—system and SCIEX Framingham, MA Qtrap 6500+ triple quadrupole mass spectrometer). All standard, quality controls (QC) and experimental samples were prepared and ran in duplicate using 20 μL of plasma (spiked with galunisertib if a standard or QC) adding 15 μL of 8% phosphoric acid solution, 200 μL of acetonitrile (to crash plasma proteins) spiked with tramadol as an internal standard. The standard curve was prepared as a 10-point curve from 1.0 to 1,000 ng/ml with three QCs. […] All samples and standards were processed in duplicate with the average area under the curve (AUC) being used for quantitation reporting. […] The resulting limit of quantitation (LOQ) was 1.0 ng/ml.

ACH-2 cells = assay: PMA-induced HIV reactivation in ACH-2 cells, intracellular p24 staining; format: cell-based
Experimental: ACH2 cells and U1 cells were obtained through the NIH HIV Reagent Program, Division of AIDS, NIAID, NIH (contributed by Dr. Thomas Folks). […] In the HIV latency reactivation conditions, PMA (Phorbol 12-myristate 13-acetate, SigmaAldrich) was added at 100 ng/ml together with galunisertib or TGF-β1. After 18 hrs, cells were stained intracellularly for p24 using the KC57 antibody (NIH HIV Reagent Program) as previously described (74).

U1 cells = assay: DC-driven HIV reactivation from U1 cells (moDC co-culture); format: cell-based; details: moDCs treated with TGF-β1 10 ng/ml for last 2 days, with or without galunisertib; 18 hrs co-culture
Experimental: CD14^+ cells were isolated from PBMC using the Miltenyi CD14^+ beads. Monocyte-derived DCs (moDCs) were obtained from CD14+ cells cultured in GM-CSF and IL-4 as previously described (55). At day 4 of moDCs differentiation, TGF-β1 (10 ng/ml R&D systems) was added to the moDCs to generate the TGF-β-DCs (or both TGF-β1 and galunisertib). At day 6, 2 days after TGF-1 addition, moDCs were phenotyped (in 3 donors; See Table 2 for antibodies list) and co-cultured with eFluor670 (eBioscience)-labelled U1 at 3:1 U1:DC ratio (5 donors). After 18 hrs of co-culture, cells were stained for p24 intracellularly as described above.

## Cc1cccc(-c2nn3c(c2-c2ccnc4ccc(C(N)=O)cc24)CCC3)n1 [galunisertib, Galunisertib]
[1]; before, during and after therapy
  clinical variables (chemistry and hematology): No significant changes
[1]; macaque studies
  adverse events: no adverse events
[2]; macaque vs human plasma
  concentration in blood of macaques lower than average concentration in human plasma after similar dosing: at least 10 fold
[2]; naïve animals, oral 2.5 or 5 mg/kg
  PK in rhesus macaques compared with humans: substantially lower than in humans
ACH-2 cells; ACH-2 cells, TGF-β1 + galunisertib 1 μM
  frequency of p24-gag+ cells in TGF-β1-treated cultures: restore frequency of p24-gag+ cells
ACH-2 cells; ACH-2 cells, galunisertib in absence of exogenous TGF-β1, medium with FBS
  frequency of p24-gag+ cells versus PMA-stimulated cultures: increase it above PMA-stimulated cultures
ACH-2 cells; control experiments, U1 and ACH-2, no FBS
  effect on p24+ cells in X-Vivo 15 medium without FBS: absent
U1 cells
  frequency of p24-gag+ U1 cells in cocultures with TGF-β1-treated DCs versus untreated DCs: blocked
